# Experimental data from patent EP4763839A1 (Pamplona Therapeutics (Shenzhen) Co., Ltd., priority 2023, dated 2025).
# Legend:
# [1] = test system: IL-6; test: Inhibition of R848-induced IL-6 release in human PBMCs, IL-6 ELISA; type: cell-based; settings: PBMC, compound 24 hours, then R848 10 µg/mL 5 hours
# Description: Example 3: Detection of inhibition of R848-induced IL-6 release
# Cryopreserved human PBMCs (Milestone® Biotechnologies, PB010C-W) were thawed and resuspended in RPMI-1640 medium (Gibco, 22400-105) supplemented with 10% fetal bovine serum (Gibco, 10099-141), 100 U/mL penicillin, and 100 µg/mL streptomycin (Gibco, 15140122). Subsequently, 190 µL of the PBMC suspension was added to each well of 96-well clear cell culture plates (Corning, 3599) to achieve a density of 1×10^5 cells/well. The cell plates were incubated at 37°C in a 5% CO2 incubator for 30 minutes. Then, 5 µL of diluted compound solution was added to the corresponding cell-seeded wells to achieve final concentrations ranging from 0.046 to 3,000 nM. The final concentration of DMSO was 0.1%. After the compound-treated cell plate was incubated at 37°C in a 5% CO2 incubator for 24 hours, 5 µL of R848 (MCE, HY-13740) was added to achieve a final concentration of 10 µg/mL. The cell plates were incubated again at 37°C in a 5% CO2 incubator for 5 hours, then centrifuged at 1,000 rpm for 1 minute. 100 µL of the cell supernatant from each well was transferred to a new 96-well clear cell culture plate for IL-6 concentration testing.
# Interleukin-6 (IL-6) ELISA assay
# The IL-6 concentration in the supernatant of R848-induced human PBMCs was determined using a Human IL-6 (interleukin-6) ELISA KIT (4Bio, CHE0009-048). IL-6 standard solutions at different concentrations, ranging from 3.9 to 250 pg/mL, were prepared according to the manufacturer's instructions. 100 µL of each concentration of the IL-6 standard solution and the pre-diluted test cell supernatant samples were added separately to anti-IL-6 antibody-coated and blocked clear 96-well plates, followed by incubation at 37°C for 1.5 hours. According to the product instructions, the plates were washed, 100 µL of biotinylated antibody was added, and the plates were incubated at 37°C for 1 hour. The plates were washed, 100 µL of enzyme conjugate working solution was added. The plates were incubated at 37°C for 30 minutes, and then washed. 100 µL of chromogenic substrate was added, and the plates were incubated at 37°C for 10-20 minutes. The reaction was terminated by adding 100 µL of stop solution. After the reaction, the OD value at 450 nm was measured in absorbance mode using an Envision microplate reader (PerkinElmer). A standard curve was plotted using the corrected OD values of the various concentrations of IL-6 standard solutions. The IL-6 concentration in each cell supernatant was then determined on the basis of the corresponding concentration for the corrected OD value of the test sample on the standard curve. […] Subsequently, the IC50 value of the compound was calculated by performing non-linear curve fitting of concentration versus inhibition rate using GraphPad Prism 9.
# [2] = Pharmacokinetic detection in rats after intravenous injection and oral administration; type: in vivo, Sprague-Dawley (SD) rats; settings: rat; for AUC / Cmax / half-life: in vivo, oral administration
# Description: Example 4. Pharmacokinetic detection
# This study was designed to investigate the pharmacokinetic properties of the compounds in rats following intravenous injection and oral administration.
# Experimental protocol: Six healthy male Sprague-Dawley (SD) rats were used for each compound, randomly divided into two groups of three animals each, with body weights ranging from 180-220 g. The rats were fasted overnight (10-14 hours) prior to administration, with free access to water, and food was restored 4 hours after administration. The compounds were formulated in a vehicle consisting of 5% DMSO + 10% solutol + 85% physiological saline (w/v). […] For A170, A177, and A180, the intravenous injection group received a dose of 1 mg/kg with an administration volume of 1 mL/kg, and the oral administration group received a dose of 5 mg/kg with an administration volume of 5 mL/kg. Blank blood samples were collected prior to administration. After administration, 0.2 mL of blood was collected from the jugular vein or other suitable methods at predetermined time points (0.083 h, 0.25 h, 0.5 h, 1 h, 2 h, 4 h, 8 h, 24 h) into EDTA-K2 anticoagulant tubes, and plasma was separated by centrifugation at 6800 g for 6 minutes. After the experiment, the concentration of the compound in plasma was quantitatively detected using liquid chromatography-tandem mass spectrometry (LCMS/MS). Pharmacokinetic parameters were calculated on the basis of the plasma concentration data at different time points using Phoenix WinNonlin version 8.3.5.
# [3] = molecular target: T1, IRAK4 (Homo sapiens, UniProt Q9NWZ3); test: Degradation of IRAK4 in THP1 cells, Western blot; type: cell-based; set-up: Degradation of IRAK4 in THP1 by compound; host or cells: THP-1; settings: THP-1 cells, 24 hours of incubation; for DC50: IRAK4 protein by Western blot, read-out: DC50; for Dmax: maximum degradation rate, read-out: Dmax
# T1 sequence (Q9NWZ3 1-460): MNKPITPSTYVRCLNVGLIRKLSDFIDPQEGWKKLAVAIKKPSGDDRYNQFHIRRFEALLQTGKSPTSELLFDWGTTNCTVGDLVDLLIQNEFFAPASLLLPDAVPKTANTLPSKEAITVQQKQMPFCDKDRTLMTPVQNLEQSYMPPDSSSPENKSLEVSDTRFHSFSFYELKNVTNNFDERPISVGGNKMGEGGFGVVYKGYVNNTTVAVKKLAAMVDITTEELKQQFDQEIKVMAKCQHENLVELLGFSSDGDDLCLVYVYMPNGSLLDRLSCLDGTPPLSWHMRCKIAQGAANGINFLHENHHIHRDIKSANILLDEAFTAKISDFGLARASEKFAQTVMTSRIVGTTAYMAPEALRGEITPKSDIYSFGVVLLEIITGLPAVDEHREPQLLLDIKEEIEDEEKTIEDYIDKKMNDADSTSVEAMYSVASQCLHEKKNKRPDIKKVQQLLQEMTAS
# In short: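 Degradation rate derived from densitometry of IRAK4 bands versus DMSO-treated controls. Read-out: anti-IRAK4 immunoblot (10% gel, 40 μg total protein per lane, BCA-normalised) of lysates from THP1 cells incubated with compound for 24 h.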
# [4] = molecular target: T1, IRAK4; settings: Phase I clinical studies in hidradenitis suppurativa and atopic dermatitis; cited from earlier work
# [5] = oral 10 mg/kg, intravenous 2 mg/kg
# [6] = oral 5 mg/kg, intravenous 1 mg/kg
Compound,IC50 [1] [µM],DC50 [3] [µM],Dmax [3] [%],other results
NC(=O)c1nn(-c2ccc(N3CCN(CC4CCN(c5ccc6c(c5)CN(C5CCC(=O)NC5=O)C6=O)CC4)CC3)cc2)cc1NC(=O)c1cccc(C(F)(F)F)n1 (stereo not shown) [Compound A169],< 0.01,< 0.1,> 60,"AUC ([2]; 10 mg/kg): 3.52 µg·h/mL; Cmax ([2]; 10 mg/kg): 0.408 µg/mL; half-life ([2]; 10 mg/kg): 5 h; F [2, 5]: 16%"
NC(=O)c1nn(-c2ccc(N3CCN(CC4CCN(c5ccc6c(c5)CN(C5CCC(=O)NC5=O)C6=O)CC4(F)F)CC3)cc2)cc1NC(=O)c1cccc(C(F)(F)F)n1 (stereo not shown) [Compound A170],< 0.01,< 0.1,> 60,"AUC ([2]; 5 mg/kg): 2.16 µg·h/mL; Cmax ([2]; 5 mg/kg): 0.285 µg/mL; half-life ([2]; 5 mg/kg): 7 h; F [2, 6]: 28%"
NC(=O)c1nn(-c2ccc(N3CCN(CCN4CCN(c5ccc6c(c5)C(=O)N(C5CCC(=O)NC5=O)C6=O)CC4)CC3)cc2)cc1NC(=O)c1cccc(C(F)(F)F)n1 (stereo not shown) [Compound A173],< 0.01,–,–,"AUC ([2]; 10 mg/kg): 1.13 µg·h/mL; Cmax ([2]; 10 mg/kg): 0.107 µg/mL; half-life ([2]; 10 mg/kg): 21 h; F [2, 5]: 18%"
Cn1c(=O)n(C2CCC(=O)NC2=O)c2ccc(N3CCC(CN4CCN(c5ccc(-n6cc(NC(=O)c7cccc(C(F)(F)F)n7)c(C(N)=O)n6)cc5)CC4)CC3)cc21 (stereo not shown) [Compound A177],< 0.01,< 0.1,> 60,"AUC ([2]; 5 mg/kg): 1.23 µg·h/mL; Cmax ([2]; 5 mg/kg): 0.12 µg/mL; half-life ([2]; 5 mg/kg): 8 h; F [2, 6]: 8%"
Cn1c(=O)n(C2CCC(=O)NC2=O)c2cccc(N3CCC(CN4CCN(c5ccc(-n6cc(NC(=O)c7cccc(C(F)(F)F)n7)c(C(N)=O)n6)cc5)CC4)CC3)c21 (stereo not shown) [Compound A178],< 0.01,< 0.1,> 60,"AUC ([2]; 10 mg/kg): 6.56 µg·h/mL; Cmax ([2]; 10 mg/kg): 0.593 µg/mL; half-life ([2]; 10 mg/kg): 15 h; F [2, 5]: 30%"
"Cn1c(=O)n(C2CCC(=O)NC2=O)c2cccc(N3CCC(CCN4CCN(c5ccc(-n6cc(NC(=O)c7cccc(C(F)(F)F)n7)c(C(N)=O)n6)cc5)CC4)CC3)c21 (stereo not shown) [Compound A182, N-(3-carbamoyl-1-(4-(4-(2-(1-(1-(2,6-dioxopiperidin-3-yl)-3-methyl-2-oxo-2,3-dihydro-1H-benzo[d]imidazol-4-yl)piperidin-4-yl)ethyl)piperazin-1-yl)phenyl)-1H-pyrazol-4-yl)-6-(trifluoromethyl)picolinamide]",< 0.01,< 0.1,> 60,–
"COc1ccc(C(=O)N2CCC(CCN3CCN(c4ccc(N5C=C(NC(=O)c6cccc(C(F)(F)F)n6)C(=C=O)N5)cc4)CC3)C2)cc1N1CCC(=O)NC1=O (stereo not shown) [Compound A183, N-(3-carbonyl-1-(4-(4-(2-(1-(3-(2,4-dioxotetrahydropyrimidin-1(2H)-yl)-4-methoxybenzoyl)pyrrolidin-3-yl)ethyl)piperazin-1-yl)phenyl)-1H-pyrazol-4-yl)-6-(trifluoromethyl)picolinamide]",< 0.01,< 0.1,> 60,–
Cn1c(-c2ccc(N3CCC(CN4CCN(c5ccc(-n6cc(NC(=O)c7cccc(C(F)(F)F)n7)c(C(N)=O)n6)cc5)CC4)C3)cc2)nn(C2CCC(=O)NC2=O)c1=O (stereo not shown) [Compound A187],< 0.01,< 0.1,> 60,–
Cn1c(-c2ccc(N3CCC(CN4CCN(c5ccc(-n6cc(NC(=O)c7cccc(C(F)(F)F)n7)c(C(N)=O)n6)cc5)CC4)CC3)cc2)nn(C2CCC(=O)NC2=O)c1=O (stereo not shown) [Compound A189],0.01 to 0.03,0.1 to 1,> 60,–
NC(=O)c1nn(-c2ccc(N3CCN(CC4CCN(c5ccc(NC6CCC(=O)NC6=O)cc5F)CC4)CC3)cc2)cc1NC(=O)c1cccc(C(F)(F)F)n1 (stereo not shown) [Compound A195],< 0.01,–,–,"AUC ([2]; 10 mg/kg): 19.3 µg·h/mL; Cmax ([2]; 10 mg/kg): 1.25 µg/mL; half-life ([2]; 10 mg/kg): 15 h; F [2, 5]: 52%"
NC(=O)c1nn(-c2ccc(N3CCN(CCC4CCN(c5cccc(NC6CCC(=O)NC6=O)c5)CC4)CC3)cc2)cc1NC(=O)c1cccc(C(F)(F)F)n1 (stereo not shown) [Compound A196],< 0.01,< 0.1,> 60,–
NC(=O)c1nn(-c2ccc(N3CCN(CC4CCN(c5cccc(NC6CCC(=O)NC6=O)c5)CC4)CC3)cc2)cc1NC(=O)c1cccc(C(F)(F)F)n1 (stereo not shown) [Compound A197],0.01 to 0.03,< 0.1,> 60,–
"NC(=O)c1nn(-c2ccc(CN3CCC4(CC3)CN(c3ccc5c(c3)C(=O)N(C3CCC(=O)NC3=O)C5=O)C4)cc2)cc1NC(=O)c1cccc(C(F)(F)F)n1 (stereo not shown) [Compound A224, N-(3-carbamoyl-1-(4-((2-(2-(2,6-dioxopiperidin-3-yl)-1,3-dioxoisoindolin-5-yl)-2,7-diazaspiro[3.5]nonan-7-yl)methyl)phenyl)-1H-pyrazol-4-yl)-6-(trifluoromethyl)picolinamide]",0.01 to 0.03,0.1 to 1,> 60,–
NC(=O)c1nn(-c2ccc(N3CCN(CC4CCN(c5ccc6c(c5)C(=O)N(C5CCC(=O)NC5=O)C6=O)C4)CC3)cc2)cc1NC(=O)c1cccc(C(F)(F)F)n1 (stereo not shown) [Compound A227],< 0.01,< 0.1,> 60,–
NC(=O)c1nn(-c2ccc(N3CCC(NCC4CCN(c5ccc6c(c5)C(=O)N(C5CCC(=O)NC5=O)C6=O)C4)CC3)cc2)cc1NC(=O)c1cccc(C(F)(F)F)n1 (stereo not shown) [Compound A228],< 0.01,< 0.1,> 60,–
"Cn1c(=O)n(C2CCC(=O)NC2=O)c2cccc(C#CCOC3CCN(CC4CCC(n5cc(NC(=O)c6cnn7ccc(N8CC9CC8CO9)nc67)c(C(F)F)n5)CC4)CC3)c21 (stereo not shown) [Control compound 1, reference compound]",–,–,–,"AUC ([2]; 10 mg/kg): 0.428 µg·h/mL; Cmax ([2]; 10 mg/kg): 0.098 µg/mL; half-life ([2]; 10 mg/kg): 4 h; F [2, 5]: 8%"
Cn1c(=O)n(C2CCC(=O)NC2=O)c2cccc(C#CCOC3CCN(C[C@H]4CC[C@H](n5cc(NC(=O)c6cnn7ccc(N8C[C@H]9C[C@@H]8CO9)nc67)c(C(F)F)n5)CC4)CC3)c21 (stereo partly shown) [KT-474],–,–,–,safety and tolerability [4]: favorable safety and tolerability
